Test system: Beta-TC-6 cells
Test: Insulin release enhancement in Beta-TC-6 cells (insulin ELISA)
Type: cell-based, mouse
Conditions: for Percent Enhancement of Insulin Secretion (10 μM): compound at 10 μM, compared to glucose-dependent insulin production
Description: Beta-TC-6 cells are an insulin-secreting cell line derived from transgenic mice expressing the large T-antigen of simian virus 40 (SV40) in pancreatic beta-cells as described by Poitout et al., Diabetes, 44:306-313 (1995). The cell line was obtained from ATCC cell bank CAT# CRL-11506 and grown in Dulbecco's Modified Eagle's Medium (DMEM) with 15% fetal bovine serum (FBS), 4 mM glutamine, 4.5 mM glucose 1500 mg/L sodium bicarbonate and 1× penn/strep antibiotic mix in a 37° C. incubator with 5% CO2. Cultures were routinely split 1:2 twice a week with the aid of trypsin.
On the day before the assay 0.1×10^6 Beta-TC-6 cells were plated into each well of 96 well plates, and the cells cultured overnight in growth media.
On the next day, growth media was removed from the plate and the monolayers rinsed with phosphate buffered saline (PBS) and pre-incubated 30 mins at 37° C. in Krebs-Ringer Bicarbonate Buffer (KRBB) consisting of 118.5 mM NaCl, 2.54 mM CaCl2, 1.19 mM KH2PO4, 4.74 mM KCl, 25 mM NaHCO3, 1.19 mM MgSO4, 10 mM HEPES buffer and 0.1% bovine serum albumin at pH 7.4. This buffer was removed and replaced with 100 μL of the same buffer containing various insulin release modulators: including various concentrations of glucose up to 12 mM and compounds up to 100 μM. Compounds stock solutions, e.g. 10-20 mM, were diluted in DMSO. Final DMSO concentrations in incubation buffer were 0.5% or less. Vehicle controls were included. Static incubations were then performed for 2 h at 37° C. The entire incubation volume was collected after the 2 h incubation for insulin assay.
ELISA Protocol for insulin determinations. The following protocol was used for doing ELISA using the Rat/Mouse Insulin ELISA Kit from Linco Research, Inc., CAT#EZRMI-13K and Amplex® Red Hydrogen Peroxide/Peroxidase Assay Kit, CAT#A22188, and Amplex® Red reagent (10-acetyl-3,7-dihydroxyphenoxazine) CAT#A12222.
All reagents were Pre-warmed to room temperature before setting up experiment.
1. Dilute the 10× washing buffer into 1× washing buffer. 50 mL+450 mL de-ionized water. Do 1:10 dilution to the cell culture supernatant (Beta-TC-6 cell incubation).
2. Use one column (8 wells) wells for standard samples and QC1 and QC2, typically 0 and 5 ng/mL of insulin. On some plates full standard curves for insulin obtained as shown below.
3. Cover the unused wells well. Wash each well 3 times with 300 μL of 1× washing buffer each time. (2 minutes each washing step on the shaker.) Decant Wash Buffer and remove the residual amount from all wells by inverting the plate and tapping it smartly onto absorbent towels several times.
4. Add 20 μL Assay Buffer into that blank well and 10 μL into those wells for standards and samples.
5. Add 10 μL rat insulin standards and samples to the appropriate wells.
6. Add 80 μL Detection Antibody to all wells. Cover the plate and incubate at room temperature for 2 hours.
7. Tear off the plate cover and decant solutions from the plate. Tap to remove residual solutions in well.
8. Wash well 3 times with diluted wash buffer 300 μL per well per wash (2 minutes each washing step on the shaker). Tap to remove residual solutions as before.
9. Add 100 μL Enzyme Solution to each well. Cover plate with sealer and incubate with moderate shaking at room temperature for 30 min on the microtiter plate shaker.
10. Remove sealer, decant solutions from the plate and tap plate to remove the residual fluid.
11. Wash wells 6 times with diluted Wash Buffer, 300 μL per well per wash. Decant and tap after each wash to remove residual buffer.
12. Prepare 5 mL working solution of […] Amolex Red reagent containing 2.0 mM H2O2. 4.45 mL of 1× Reaction buffer+50 μL 10 mM Amplex Reagent+500 μL 20 mM H2O2.
13. Add 100 μL of the Amplex Red reagent/H2O2 to each well.
14. Incubate the reactions. Incubate at room temperature for 30 minutes, protected from light (using foil to wrap the plate). […]

| SMILES | insulin secretion (FIG. 5) | Percent Enhancement of Insulin Secretion (10 μM) [%] | glucose dependence of stimulation of insulin release (varying glucose concentration, FIG. 3 and FIG. 7) |
| --- | --- | --- | --- |
| COc1ccc(/C=N/NC(=O)Cc2cccc3ccccc23)cc1OC [Example 3, (E)-N′-(3,4-Dimethoxybenzylidene)-2-(naphthalene-1-yl)acetohydrazide] | increases insulin secretion | 250 | increases insulin secretion in a glucose-dependent manner |
| COc1ccc(/C=N/NC(=O)CCn2c3ccccc3c3ccccc32)cc1OC [Example 23, 3-Carbazol-9-ylpropionic acid (3,4-dimethoxybenzylidene)hydrazide] | – | 208 | – |
